Paper PMC12289066, “Identification of glutathione transferase (GST P1) inhibitors via a high-throughput screening assay and implications as alternative treatment options for breast cancers” (PLOS One, 2025)
Read-outs that look alike come from different tables or passages of the source.

How the values were obtained:
[1] = test system: MCF-7 cells; assay: MTT cytotoxicity assay, MCF-7; type: cell-based, human; settings: MTT, 72 h incubation, read-out: IC50 (average ± standard deviation) MCF-7
Method: (§1) L929, MCF-7, and MDA-MB-231 cell lines were cultured in DMEM GlutaMAX media containing 10% heat-inactivated FBS and 1% (v/v) penicillin-streptomycin at 37°C and CO2 (5%). Cytotoxicity was determined using a 3-(4,5-dimethyl 2-thiazolyl)-2,5-diphenyl-2H-tetrazolium bromide (MTT) assay. 100 μL aliquots and approximately 50’000 cells/well were added to each well of flat-bottomed 96-well plates and incubated for 24 h in a humidified chamber at 37°C under saturated air with a 5% CO2 atmosphere. Stock solutions of 10 mM drug compounds were prepared in DMSO and were sequentially diluted with the cell culture buffer to give a final DMSO concentration of 0.5%. The solutions were added to the 96-well plates in 100 μL aliquots and 100 μL of buffer was added as a control to give a final drug compound concentration range of 0 − 100 μM. The plates were incubated for a further 72 h under the same conditions as before. MTT (10 μL, 5 mg/mL in Dulbecco’s phosphate-buffered saline) was added to each well and the plates were incubated for a further 3 h under the same conditions as before. The culture medium was aspirated from each well and the purple formazan crystals, formed by the mitochondrial dehydrogenase activity of vital cells, were dissolved in 100 μL DMSO. The absorbance of the resulting solutions was measured at 570 and 630 nm using a SpectraMax M5e multimode microplate reader and SoftMax Pro software, version 6.2.2. As the absorbance is directly proportional to the number of surviving cells, the percentage of surviving cells was calculated from the absorbance of wells relative to the control. The reported IC50 values are based on the mean from four independent experiments, each comprising three replicates per concentration.

[2] = test system: MDA-MB-231 cells; assay: MTT cytotoxicity assay, MDA-MB-231; type: cell-based, human; settings: MTT, 72 h incubation, read-out: IC50 (average ± standard deviation) MDA-MB-231
Method: as §1

[3] = biological target: T1, GST P1-1 (Homo sapiens, UniProt P09211); assay: High-throughput GST P1-1 inhibition assay (384-well screen, CDNB/GSH); type: biochemical; settings: compound 10 μM; score 0 = negative control (DMSO), 1 = positive control (EA 50 μM); average of duplicate
T1 construct: purchased Sigma-Aldrich
Method: (§2) Each drug compound was added to the respective well at a volume of 80 nL of 10 mM stock solution in DMSO, yielding a final compound concentration of 10 μM and a final DMSO concentration of 0.1%. Each plate’s first and last two columns were used as negative (no compound added – 80 nL per well of DMSO) and positive (80 nL of EA added with a final concentration of 50 μM) controls, respectively. The Gyger Certus Flex dispenser was set up using a freshly prepared 1 mM of GSH and 20 nM of GST P1-1, pH 7.4, in one syringe and 8 mM CDNB solution in pure ethanol in the other syringe. Into each well 80 μL of GST-GSH solution was dispensed and incubated at 25°C for 20 minutes before the reaction was initiated by the addition of 4 μL of CDNB solution. The plates were incubated for 2 h in the dark at 25°C and then the absorbance was of each well recorded on a BioTek Synergy NEO HTS multimode plate reader (Agilent®) at a wavelength of 340 nm.
The z’factor was calculated for each plate according to Zhang et al.. The Z-factor is a dimensionless, simple statistical characteristic for each HTS assay. This provides a valuable tool for the comparison and assessment of the quality of assays, and can be utilized in assay optimization and validation. For each plate, the concentration of product was normalized by assigning a score of 0 (0%) to the negative control (average of maximal concentration of product measured in the presence of enzyme without any inhibitor) and a score of 1 (100%) was assigned to the positive control (average minimal concentration of product measured in the presence of enzyme with the reference inhibitor, i.e., EA). The experiment was performed in duplicate and the score for each drug compound was calculated as an average ± standard deviation. […] An internal laboratory information management system (LIMS) was used for basic data processing, management, visualization, and statistical hit validation.

[4] = test system: L929 cells; assay: MTT cytotoxicity assay, L929; type: cell-based, mouse; settings: MTT, 72 h incubation, read-out: IC50 (average ± standard deviation) L929
Method: as §1, with “Cytotoxicity” for “L929, MCF-7, and MDA-MB-231 cell lines were cultured in DMEM GlutaMAX media containing 10% heat-inactivated FBS and 1% (v/v) penicillin-streptomycin at 37°C and CO2 (5%). Cytotoxicity”, “Stock solutions of 10 mM drug compounds were prepared in DMSO and were sequentially diluted with the cell culture buffer to give a final DMSO concentration of 0.5%. The solutions were added to the 96-well plates in 100 μL aliquots and 100 μL of buffer was added as a control to give a final drug compound concentration range of 0 − 100 μM.” left out

[5] = biological target: T1, GST P1-1; assay: Determination of IC50 for GST P1-1 enzyme (dose-response / reconfirmation assay); type: biochemical
Method: as §2
The IC50 of the GST P1-1 enzyme was determined for the 80 drug compounds with the highest score in the GST P1-1 screening assay. The assay conditions were used for the screening assay and each drug compound was tested at 8 different concentrations (μM) starting at 30 µM final assay concentration with a half-log dilution and 2 replicates per concentration.

[6] = Table 2, rounded values, read-out: IC50 GSTP1 enzymatic reaction
[7] = reconfirmation assay, Table S2, read-out: IC50 GSTP1

T1 sequence (P09211 2-210 limits assumed): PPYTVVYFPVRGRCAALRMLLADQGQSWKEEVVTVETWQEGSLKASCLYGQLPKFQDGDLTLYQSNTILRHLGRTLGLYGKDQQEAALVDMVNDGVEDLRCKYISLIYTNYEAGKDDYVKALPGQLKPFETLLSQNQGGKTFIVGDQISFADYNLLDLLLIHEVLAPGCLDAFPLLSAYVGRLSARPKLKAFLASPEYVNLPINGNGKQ

Compound | IC50 ([1]; Homo sapiens, MCF7) [µM] | IC50 ([2]; Homo sapiens, MDA-MB-231) [µM] | Score [3] | IC50 ([4]; Mus musculus, L929) [µM] | IC50 [5, 6] [µM] | Hill Slope (dose-response curve) ([5]; reconfirmation assay) | IC50 [5, 7] [µM] | IC50 [1] [µM] | IC50 [2] [µM] | IC50 [4] [µM]
CCCCCCCCCCCC1=C(O)C(=O)C=C(O)C1=O [Embelin] | 11 ± 1 | 12 ± 1 | 0.935 | 14 ± 1 | 0.6 | 1.46 | 0.64 |  |  | 
C[C@@H]1Cc2c([nH]c3ccccc23)[C@@H](c2c(F)cc(/C=C/C(=O)O)cc2F)N1CC(C)(C)F [AZD9496] | 14 ± 1 | 47 ± 5 | 0.806 | 36 ± 4 | 2.1 | 2.23 | 2.05 |  |  | 
CC(C)(C)C(=O)CN1C(=O)[C@H](NC(=O)Nc2cccc(C(=O)O)c2)CN(C2CCCCC2)c2ccccc21 [Nastorazepide] |  |  | 0.958 |  | 3.3 | 10.6 |  | > 100 | > 100 | > 100
O=C(O)[C@]1(Cc2cccc(Nc3nccs3)n2)CC[C@@H](Oc2cccc(Cl)c2F)CC1 [MK-5108] | 3.4 ± 0.8 | > 100 | 0.933 | 2.2 ± 0.5 | 3.2 | 13.6 |  |  |  | 
C=C(CC)C(=O)c1ccc(OCC(=O)O)c(Cl)c1Cl [Ethacrynic acid, EA, Ethacrynic acid] | 13 ± 1 | 14 ± 1 |  | > 100 |  |  |  |  |  | 
O=C(O)c1ccccc1Nc1ccc(CCc2ccc(Cl)c(Cl)c2)cc1 [PD-118057] |  |  | 0.858 |  | 0.3 | 1.8 | 0.33 | 41 ± 4 | > 100 | > 100
CC(C)c1cc(C(C)C)c(CC(=O)NS(=O)(=O)Oc2c(C(C)C)cccc2C(C)C)c(C(C)C)c1 [Avasimibe] | 12 ± 1 | 16 ± 1 | 0.835 | 13 ± 1 | 0.4 |  | 0.37 |  |  | 
O=C1NC(=O)/C(=C/c2ccc(-c3ccc(F)cc3O)o2)S1 [AS252424] |  |  | 0.907 |  | 0.6 | 1.95 | 0.61 | 38 ± 2 | 91 ± 3 | 24 ± 2
O=C(O)c1ccc2cc(-c3ccc(O)c(C45CC6CC(CC(C6)C4)C5)c3)ccc2c1 [CD437] |  |  | 0.939 |  | 0.3 | 11.6 | 0.32 | 0.51 ± 0.05 | 0.74 ± 0.07 | 0.24 ± 0.03
Cc1cc(O)c2c(=O)c3c(O)cc(O)c4c5c(O)cc(O)c6c(=O)c7c(O)cc(C)c8c1c2c(c34)c(c78)c65 [Hypericin] | 8 ± 1 | 26 ± 3 | 0.774 | 19 ± 1 | 0.1 | 11.6 |  |  |  | 
O=C(O)c1ccc(S(=O)(=O)N(Cc2ccc(OC(F)(F)F)cc2)c2ncc(C(F)(F)F)cc2Cl)cc1 [RQ-00203078] |  |  | 0.697 |  | 3.1 | 1.6 |  | 17 ± 2 | 51 ± 6 | 42 ± 6
C=CC(=O)c1ccc2ccccc2c1 [ZM 449829] |  |  |  |  | 1.4 | 1.3 |  | 6.8 ± 0.2 | 10.3 ± 0.2 | 8.1 ± 0.4
Oc1c(Cl)cc(Cl)c(Cl)c1Cc1c(O)c(Cl)cc(Cl)c1Cl [Hexachlorophene] | 14 ± 1 | 9 ± 1 | 1.077 | 11 ± 1 | 0.4 | 2.2 | 0.42 |  |  | 
O=C1CC(=O)c2c(Cl)c(Cl)c(Cl)c(Cl)c21 [TCID] |  |  | 1.094 |  | 0.9 | 1.16 |  | > 100 | > 100 | > 100
O=C(O)c1cc(N2N=C(C(F)(F)F)/C(=C/c3ccc(-c4ccccc4)o3)C2=O)ccc1Cl [en460] |  |  | 0.837 |  | 1.1 | 1.4 |  | 10 ± 1 | 19 ± 1 | 18 ± 2
Cl.O=C(O)Cc1cccc(OCCCN(Cc2cccc(C(F)(F)F)c2Cl)CC(c2ccccc2)c2ccccc2)c1 [GW3965 (hydrochloride)] |  |  | 1.027 |  | 0.4 | 2.48 | 0.43 | 25 ± 1 | 54 ± 1 | 24 ± 2
Cc1cc(=O)n(-c2ccccc2)[nH]1 [5-Methyl-2-phenyl-1,2-dihydropyrazol-3-one] | > 100 | > 100 |  | > 100 | 0.8 | 0.8 | 0.83 |  |  | 
O=C(O)c1c(Sc2ccccc2)c2cc(Cl)ccc2n1Cc1ccc(Cl)cc1 [nTZDpa] |  |  | 0.909 |  | 0.95 | 1.7 |  | 39 ± 2 | 95 ± 4 | 36 ± 3
PSB 06126 |  |  | 0.962 |  | 0.3 | 3.4 | 0.29 | 45 ± 3 | > 100 | 39 ± 4
N#Cc1c(-c2ccccc2)cc(-c2cc(Br)ccc2O)[nH]c1=O [TCS PIM-1 1] |  |  | 0.813 |  | 2.2 | 2.5 | 2.15 | 74 ± 4 | > 100 | 36 ± 3
